{
  "source": "patent US9763572B2",
  "about": "“Quantitative pupillometry as a bedside predictor of postoperative respiratory depression” (Children's Hospital Medical Center, priority 2015, dated 2017)",
  "key": {"[1]": {"test": "Blood morphine, M3G and M6G concentrations in the recovery room (LC-MS/MS) in children undergoing tonsillectomy", "details": "mean±SD"}, "[2]": {"tested_on": "children undergoing tonsillectomy", "test": "Postoperative respiratory depression and its association with ABCB1 genetic variants in children given morphine", "details": "per added copy of minor allele (G) of ABCB1 rs9282564; 263 children; 95% CI: 2.1-10.8, p=0.0002"}, "[3]": {"tested_on": "pupil", "test": "Serial quantitative pupillometry after intraoperative morphine in the pediatric study", "format": "in vivo, children"}, "[4]": {"tested_on": "pupil", "details": "used as prophylactic antiemetic; cited from earlier work"}, "[5]": {"details": "children who did not have respiratory depression with prolonged PACU stay"}, "[6]": {"details": "children who had respiratory depression and prolonged PACU stay due to respiratory depression"}},
  "data": [
    {"smiles": "CN1CC[C@]23c4c5ccc(O)c4O[C@H]2[C@@H](O[C@@H]2O[C@H](C(=O)O)[C@@H](O)[C@H](O)[C@H]2O)C=C[C@H]3[C@H]1C5", "note": "[M6G, Morphine-6 Glucuronide]", "values": [
      {"measurement": "levels in the recovery room", "setting": "[1]; [5]", "result": "0.0117 ± 0.0071", "unit": "ng/mL"},
      {"measurement": "levels in the recovery room", "setting": "[1]; [6]", "result": "0.0091 ± 0.0039", "unit": "ng/mL"}
    ]},
    {"smiles": "CN1CC[C@]23c4c5ccc(O)c4O[C@H]2[C@@H](O)C=C[C@H]3[C@H]1C5", "note": "[morphine]", "values": [
      {"measurement": "increase in odds of a prolonged hospital stay due to postoperative respiratory depression", "setting": "[2]", "result": 4.7, "unit": "fold"},
      {"measurement": "levels in the recovery room", "setting": "[1]; [5]", "result": "8.4 ± 7.9", "unit": "ng/mL"},
      {"measurement": "levels in the recovery room", "setting": "[1]; [6]", "result": "2.25 ± 2.3", "unit": "ng/mL"},
      {"measurement": "pupillary maximum constriction velocity (MCV) vs blood morphine concentration", "setting": "[3]; FIG. 3, perioperative time points", "result": "decreased as blood morphine concentration increased"},
      {"measurement": "pupillary measures (maximum and minimum pupillary sizes, constriction percentage, maximum constriction velocity)", "setting": "[3]; after intraoperative morphine bolus, under general anesthesia, FIGS. 2A-2D", "result": "incremental reductions in all these pupillary measures"},
      {"measurement": "PACU pupillary measures compared to the baseline values", "setting": "[3]; recovery room (PACU) vs preoperative baseline", "result": "residual depressive effects"}
    ]},
    {"smiles": "CN1CC[C@]23c4c5ccc(O[C@@H]6O[C@H](C(=O)O)[C@@H](O)[C@H](O)[C@H]6O)c4O[C@H]2[C@@H](O)C=C[C@H]3[C@H]1C5", "note": "[M3G, Morphine-3 Glucuronide]", "values": [
      {"measurement": "levels in the recovery room", "setting": "[1]; [5]", "result": "0.0607 ± 0.0451", "unit": "ng/mL"},
      {"measurement": "levels in the recovery room", "setting": "[1]; [6]", "result": "0.0431 ± 0.037", "unit": "ng/mL"}
    ]},
    {"smiles": "Cc1nccn1CC1CCc2c(c3ccccc3n2C)C1=O", "note": "(centres unmarked) [ondansetron]", "values": [
      {"measurement": "interference with quantitative pupillometry responses", "setting": "[4]", "result": "does not interfere with quantitative pupillometry responses"}
    ]}
  ]
}
